Key:
[1] = target: T1, human GR (glucocorticoid receptor) (Homo sapiens, UniProt P04150); experiment: Nuclear hormone receptor competition binding assay, GR
T1 construct: expressed in transfected cells; host or cells: HEK293 (293-GR lysate)
T1 sequence (P04150 1-777): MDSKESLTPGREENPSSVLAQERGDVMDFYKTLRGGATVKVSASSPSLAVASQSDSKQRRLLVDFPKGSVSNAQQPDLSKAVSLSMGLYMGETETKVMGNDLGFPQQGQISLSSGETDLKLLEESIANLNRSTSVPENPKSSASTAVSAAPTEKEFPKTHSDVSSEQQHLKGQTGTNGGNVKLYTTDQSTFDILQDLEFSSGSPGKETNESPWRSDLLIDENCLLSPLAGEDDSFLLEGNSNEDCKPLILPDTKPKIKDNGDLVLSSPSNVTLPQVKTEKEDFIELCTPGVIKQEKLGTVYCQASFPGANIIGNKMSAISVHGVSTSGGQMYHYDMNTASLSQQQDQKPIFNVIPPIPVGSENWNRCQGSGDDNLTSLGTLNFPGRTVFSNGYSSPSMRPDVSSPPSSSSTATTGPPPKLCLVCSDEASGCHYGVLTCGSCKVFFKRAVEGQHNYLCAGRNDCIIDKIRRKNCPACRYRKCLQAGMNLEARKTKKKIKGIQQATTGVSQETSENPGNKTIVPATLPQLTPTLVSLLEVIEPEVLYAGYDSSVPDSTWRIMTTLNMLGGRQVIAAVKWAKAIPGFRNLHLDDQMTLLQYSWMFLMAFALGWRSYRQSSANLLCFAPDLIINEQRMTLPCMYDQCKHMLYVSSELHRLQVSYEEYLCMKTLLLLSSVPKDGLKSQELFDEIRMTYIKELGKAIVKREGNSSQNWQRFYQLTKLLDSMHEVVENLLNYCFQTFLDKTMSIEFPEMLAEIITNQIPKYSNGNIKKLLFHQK
Method: (§1) Cell lysates from human embryonic kidney HEK293 cells overexpressing human GR (glucocorticoid receptor), AR (androgen receptor), MR (mineralocorticoid receptor), or PR (progesterone receptor) are used for receptor-ligand competition binding assays to determine Ki values.
(§2) Briefly, steroid receptor competition binding assays are run in a buffer containing 20 mM Hepes buffer (pH=7.6), 0.2 mM EDTA, 75 mM NaCl, 1.5 mM MgCl2, 20% glycerol, 20 mM sodium molybdate, 0.2 mM DTT (dithiothreitol), 20 μg/ml aprotinin and 20 μg/ml leupeptin. Typically, steroid receptor binding assays include radio-labeled ligands, such as 0.3 nM [^3H]-dexamethasone for GR binding, 0.36 nM [^3H]-methyltrienolone for AR binding, 0.25 nM [^3H]-aldosterone for MR binding, and 0.29 nM [^3H]-methyltrienolone for PR binding, and either 20 μg 293-GR lysate, 22 μg 293-AR lysate, 20 μg 293-MR lysate or 40 μg 293-PR lysate per well. Assays are typically run in 96-well format. Competing test compounds are added at various concentrations ranging from about 0.01 nM to 10 μM. Non-specific binding is determined in the presence of 500 nM dexamethasone for GR binding, 500 nM aldosterone for MR binding, or 500 nM methyltrienolone for AR and PR binding. […] After an incubation of 2 hours, plates are read in a Wallac Microbeta counter. […]

[2] = target: T2, human PR (progesterone receptor) (Homo sapiens, UniProt P06401); experiment: Nuclear hormone receptor competition binding assay, PR; conditions: HEK293 lysate overexpressing human PR, [3H]-methyltrienolone; mean of n=7
T2 construct: expressed in transfected cells; host or cells: HEK293 (293-PR lysate)
T2 sequence (P06401 1-933): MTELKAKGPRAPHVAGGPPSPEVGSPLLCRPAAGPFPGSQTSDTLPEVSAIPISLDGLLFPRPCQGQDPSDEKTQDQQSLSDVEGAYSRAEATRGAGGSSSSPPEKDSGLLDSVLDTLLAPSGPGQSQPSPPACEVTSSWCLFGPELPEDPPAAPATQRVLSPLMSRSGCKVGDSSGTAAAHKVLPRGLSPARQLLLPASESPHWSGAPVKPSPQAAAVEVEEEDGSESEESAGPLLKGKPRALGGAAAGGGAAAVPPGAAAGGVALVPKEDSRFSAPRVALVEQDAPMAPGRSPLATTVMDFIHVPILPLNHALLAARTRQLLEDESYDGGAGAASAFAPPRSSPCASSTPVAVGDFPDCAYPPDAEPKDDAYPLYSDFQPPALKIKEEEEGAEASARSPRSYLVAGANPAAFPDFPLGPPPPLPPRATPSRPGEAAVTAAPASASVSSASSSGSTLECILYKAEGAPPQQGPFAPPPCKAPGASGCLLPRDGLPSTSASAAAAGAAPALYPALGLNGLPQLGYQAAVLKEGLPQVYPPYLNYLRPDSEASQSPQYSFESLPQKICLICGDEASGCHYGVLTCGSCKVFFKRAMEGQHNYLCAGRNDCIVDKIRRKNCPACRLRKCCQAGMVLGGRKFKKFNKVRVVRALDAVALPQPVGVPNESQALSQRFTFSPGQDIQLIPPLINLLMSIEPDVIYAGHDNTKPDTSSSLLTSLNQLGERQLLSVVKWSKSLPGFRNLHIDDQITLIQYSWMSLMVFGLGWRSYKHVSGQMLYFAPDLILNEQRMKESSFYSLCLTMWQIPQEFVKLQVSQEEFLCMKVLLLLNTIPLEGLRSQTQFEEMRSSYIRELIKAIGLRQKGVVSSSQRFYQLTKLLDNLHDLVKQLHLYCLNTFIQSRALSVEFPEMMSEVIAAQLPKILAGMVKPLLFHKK
Method: as §1, §2

With `CC/C(=C1\c2ccc(F)cc2OCc2ncccc21)c1cccc(NS(C)(=O)=O)c1` [Compound (I), (E)-N-{3-[1-(8-Fluoro-11H-10-oxa-1-aza-dibenzo[a,d]cyclohepten-5-ylidene)-propyl]-phenyl}-methanesulfonamide] the Ki ([1]; HEK293 lysate overexpressing human GR, [3H]-dexamethasone, mean of n=7) was roughly 0.2 nM, the “greater affinity for GR relative to each of human MR, AR, and PR” value ([1]; ratio of binding affinities) was no less than 15 fold and the Ki [2] was roughly 32 nM.

From patent publication US8101761B2, “(E)-N-{3-[1-(8-fluoro-11H-10-OXA-1-AZA-dibenzo [A,D] cyclohepten-5ylidene)-propyl]-phenyl}-methanesulfonamide as glucocorticoid receptor modulator for the treatment of rheumatoid arthritis” (Eli Lilly and Company, priority 2008, dated 2012)
